# From patent US20250375459A1, “METHODS FOR AMELIORATING COGNITIVE IMPAIRMENT USING BILE ACID DERIVATIVES” (INTERCEPT PHARMACEUTICALS, INC., priority 2022, published 2025)
# Assays:
# [1] = preclinical data, given early in the disease course; cited from earlier work
# C57 Blk/6 mice [2] = test: Y-maze testing of spatial memory in aged mice cohort (non-cholestatic cognitive decline); assay type: in vivo
# Description: FIG. 1 is an illustration of an aged mice cohort study plan.
# FIG. 2 is a bar graph showing the results of Y-maze testing on aged mice treated with ursodeoxycholic acid (URSO), obeticholic acid (OCA), or control at 11 and 14 months, according to the cohort study plan in FIG. 1.
# (§1) Cognitive impairment is a clinical issue with age-related cognitive decline being a substantial problem in society. C57 Blk/6 mice were aged to 9 months when they started either 6 months of Ursodeoxycholic acid or Obeticholic acid therapy or were left to age naturally to 15 months. Between 9 and 15 months of age mice develop progressive cognitive decline, by 15 months, with a novel arm time of one third indicating complete loss of short-term spatial memory (FIG. 2). Y-maze testing was repeated on the animals in each group at 11 and 14 months (FIG. 2; left bars and right bars respectively). […] The effect was not only behavioral.
# C57 Blk/6 mice [3] = test: Immunofluorescence analysis of neurons and neural progenitors in aged mice; assay type: in vivo
# Description: FIG. 3 is a bar graph showing immunofluorescence analysis of aged mice treated with obeticholic acid (OCA), ursodeoxycholic acid (URSO), or no supplement (wild type or WT) ad libitum each at 15 months (15 mnth) vs. 9 months (9 mnth), according to the cohort study plan in FIG. 1.
# as §1
# [4] = longer-term experiments, aged mice
smiles,measurement,setting,value
"CC[C@H]1[C@@H](O)[C@@H]2[C@H](CC[C@]3(C)[C@@H]([C@H](C)CCC(=O)O)CC[C@@H]23)[C@@]2(C)CC[C@@H](O)C[C@@H]12 [OCA, 3α,7α-dihydroxy-6α-ethyl-5β-cholan-24-oic acid]","cognitive dysfunction in cholestasis (e.g., PBC)",[1],reverse
same,Y-maze spatial memory performance between ages 11 and 14 months,"C57 Blk/6 mice [2]; aged C57 Blk/6 mice, therapy started at 9 months, Y-maze at 11 and 14 months",significantly improved
same,"non-cholestatic (age-related) cognitive decline, loss of short-term spatial memory",C57 Blk/6 mice [2]; therapy given between 9 and 15 months of age in the diet,completely abrogated
same,SOX2+ neural progenitor population,"C57 Blk/6 mice [3]; compared to both aged matched groups, 15 months",significant increase
same,"NeuN+ neuron count, neuron loss between 9 and 15 months","C57 Blk/6 mice [3]; immunofluorescence, supplement from 9 to 15 months, fed ad lib",no significant neuron loss
same,neuronal precursors,C57 Blk/6 mice [3]; [4],significant increase
same,overall neuronal cell loss,C57 Blk/6 mice [3]; [4],reversal
same,neurogenesis,"C57 Blk/6 mice [3]; wild-type (WT) mice, FIG. 3",significantly increases
same,neuronal loss,"C57 Blk/6 mice [3]; wild-type (WT) mice, FIG. 3",slows
